# “Also recorded” adds a separate entry of the source. Counter-ions that a name gives are not always drawn.
# Columns and labels:
# Format in all cases: physicochemical
# [1] = Solubility determination (equilibrium solubility, 24 hrs stirring at room temperature, HPLC); details: for Equilibrium solubility: target concentration 2000 µg/mL, 24 hrs; for pH24 hrs: pH of the filtrate after 24 hrs; for solubility (in words): various pH conditions, buffers and biological medium solutions
# Method: (§1) The stability and solubility of the crystalline free form of the compound of formula (I) or the basic salt thereof of the present application were determined by HPLC.
# The desired amount of the compound was weighed into a glass vial, and the desired amount of a vehicle was added. A stir bar was added to the vial, and the mixture was stirred at room temperature for 24 hrs. After 24 hrs, the appearance of the sample was observed. An appropriate amount of the sample was filtered through a PVDF 0.45 µm filter membrane, and the filtrate was collected. The pH value of the filtrate was determined, and the sample was diluted with MeOH. The diluted sample was injected into an HPLC system to determine the concentration.
# [2] = Stability determination (thermal stability and photostability, HPLC purity, appearance, XRPD); details: for XRPD: crystalline form found
# Method: as §1
# An appropriate amount of the sample was placed in a vial and left to stand at 50 °C, 80 °C or 50 °C & 75% RH (open) for 7 days to evaluate thermal stability. An appropriate amount of the sample was placed in a transparent vial, […] evaluation under conditions of overall near-ultraviolet energy of 1.2 * 10^6 Lux·hr and no less than 200 W·hr/m2.
# [3] = Hygroscopic behavior test by dynamic vapor sorption (DVS); details: for hygroscopicity (in words): DVS, 25 °C
# Text: The experimental method of characterizing the crystalline free form of the compound of formula (I) or the basic salt thereof using dynamic vapor sorption (DVS) is as follows: a small amount of the crystalline sample was placed in a precision sample tray that was compatible with the instrument; after the sample was loaded, the sample tray was placed into the instrument for analysis. In this patent, the instruments used for dynamic vapor sorption were all the DVS Intrinsic plus model, and the following experimental parameters were set: nitrogen was used as the carrier gas, a constant temperature of 25 °C was set, the rate of mass percentage change over a unit of time (dm/dt) = 0.002%/min was used as a criterion for determining if equilibrium is reached, and the program humidity change cycle was set to 50-95-0-95-50% RH; within the range of 0-90% RH, a change of 10% RH was taken as a step, and within the range of 90% RH-95% RH, a change of 5% RH was taken as a step.
# In the present invention, the hygroscopic weight increases (hygroscopic weight increase/weight before hygroscopy * 100%) of various crystalline forms under various relative humidity conditions were determined using the dynamic vapor sorption method, and the hygroscopicity of different crystalline compounds was evaluated.
# [4] = pH 4.7, 50 mM acetic acid buffer
# [5] = pH 6.8, 50 mM phosphoric acid buffer
# [6] = 50 °C, 50 °C/75% RH (open), 80 °C for 7 days and photostress for 10 days
# [7] = Aluminum foil light exposure control, 9.2 days
# [8] = Transparent light exposure, 9.2 days
# [9] = Relative humidity 0.0 % at 25 °C
# [10] = Relative humidity 10.0 % at 25 °C
# [11] = Relative humidity 20.0 % at 25 °C
# [12] = Relative humidity 30.0 % at 25 °C
# [13] = Relative humidity 40.0 % at 25 °C
# [14] = Relative humidity 50.0 % at 25 °C
# [15] = Relative humidity 60.0 % at 25 °C
# [16] = Relative humidity 70.0 % at 25 °C
# [17] = Relative humidity 80.0 % at 25 °C
# [18] = Relative humidity 90.0 % at 25 °C
# [19] = Brown vial light exposure control, 9.2 days
smiles,measurement,setting,value
"Cc1c(NC(=O)c2cc(C3CC3)c(CN3CCCC[C@H]3C(=O)O)cn2)cccc1-c1cccc(NC(=O)c2cc(C3CC3)c(CN3CCCC[C@H]3C(=O)O)cn2)c1C [free-form crystalline form F, (2S,2'S)-1,1'-(((((2,2'-dimethyl-[1,1'-biphenyl]-3,3'-diyl)bis(azanediyl))bis(carbonyl))bis(4-cyclopropylpyridine-6,3-diyl))bis(methylene))bis(piperidine-2-carboxylic acid)]",Equilibrium solubility,[1]; FaSSGF,117.15 µg/mL
same,Equilibrium solubility,[1]; FaSSIF,306.56 µg/mL
same,Equilibrium solubility,[1]; FeSSIF,1723.16 µg/mL
same,Equilibrium solubility,"[1]; Water, room temperature",69.47 µg/mL
same,Equilibrium solubility,"[1]; pH 1.2, HCl 100 mM",244.49 µg/mL
same,Equilibrium solubility,[1]; [4],67.33 µg/mL
same,Equilibrium solubility,[1]; [5],61.01 µg/mL
same,pH24 hrs,[1]; FaSSGF,1.58
same,pH24 hrs,[1]; FaSSIF,6.42
same,pH24 hrs,[1]; FeSSIF,4.99
same,pH24 hrs,[1]; Water,5.52
same,pH24 hrs,"[1]; pH 1.2, HCl 100 mM",1.15
same,pH24 hrs,[1]; [4],4.68
same,pH24 hrs,[1]; [5],6.93
same,solubility (in words),[1],extremely significantly improved solubility
same,physical and chemical stability (in words),[2]; [6],extremely high physical and chemical stability
same,Appearance,"[2]; 50 °C, 11 days",White powder
same,Purity (%),"[2]; 50 °C, 11 days",99.36%
same,Appearance,"[2]; 50 °C/75%RH, 11 days",White powder
same,Purity (%),"[2]; 50 °C/75%RH, 11 days",99.36%
same,Appearance,"[2]; 80 °C, 11 days",White powder
same,Purity (%),"[2]; 80 °C, 11 days",99.22%
same,Appearance,[2]; [7],White powder
same,Purity (%),[2]; [7],99.39%
same,Appearance,"[2]; Initial, 0 days",White powder
same,Purity (%),"[2]; Initial, 0 days",99.44%
same,Appearance,[2]; [8],White powder
same,Purity (%),[2]; [8],99.43%
same,XRPD,"[2]; 50 °C, 11 days",Free-form crystalline form F
same,XRPD,"[2]; 50 °C/75%RH, 11 days",Free-form crystalline form F
same,XRPD,"[2]; 80 °C, 11 days",Free-form crystalline form F
same,XRPD,[2]; [7],Free-form crystalline form F
same,XRPD,"[2]; Initial, 0 days",Free-form crystalline form F
same,XRPD,[2]; [8],Free-form crystalline form F
same,hygroscopicity (in words),[3],moderate hygroscopicity
same,hygroscopicity (in words),[3]; listed as crystalline form F,moderately hygroscopic
same,Hygroscopic weight increase (%),[3]; [9],0.00%
same,Hygroscopic weight increase (%),[3]; [10],0.18%
same,Hygroscopic weight increase (%),[3]; [11],0.38%
same,Hygroscopic weight increase (%),[3]; [12],0.60%
same,Hygroscopic weight increase (%),[3]; [13],0.84%
same,Hygroscopic weight increase (%),[3]; [14],1.14%
same,Hygroscopic weight increase (%),[3]; [15],1.54%
same,Hygroscopic weight increase (%),[3]; [16],2.04%
same,Hygroscopic weight increase (%),[3]; [17],2.55%
same,Hygroscopic weight increase (%),[3]; [18],3.28%
same,crystalline form changes after DVS testing,[3],no crystalline form changes
"Cc1c(NC(=O)c2cc(C3CC3)c(CN3CCCC[C@H]3C(=O)O)cn2)cccc1-c1cccc(NC(=O)c2cc(C3CC3)c(CN3CCCC[C@H]3C(=O)O)cn2)c1C [crystalline form B of disodium salt anhydrate] [(2S,2'S)-1,1'-(((((2,2'-dimethyl-[1,1'-biphenyl]-3,3'-diyl)bis(azanediyl))bis(carbonyl))bis(4-cyclopropylpyridine-6,3-diyl))bis(methylene))bis(piperidine-2-carboxylic acid)]",Equilibrium solubility,[1]; FaSSGF,485 µg/mL
same,Equilibrium solubility,[1]; FaSSIF,474 µg/mL
same,Equilibrium solubility,[1]; FeSSIF,≥ 2000 µg/mL
same,Equilibrium solubility,"[1]; Water, room temperature",≥ 2000 µg/mL
same,Equilibrium solubility,"[1]; pH 1.2, HCl 100 mM",≥ 2000 µg/mL
same,Equilibrium solubility,[1]; [4],135 µg/mL
same,Equilibrium solubility,[1]; [5],194 µg/mL
same,pH24 hrs,[1]; FaSSGF,1.72
same,pH24 hrs,[1]; FaSSIF,6.93
same,pH24 hrs,[1]; FeSSIF,6.90
same,pH24 hrs,[1]; Water,9.96
same,pH24 hrs,"[1]; pH 1.2, HCl 100 mM",0.95
same,pH24 hrs,[1]; [4],4.92
same,pH24 hrs,[1]; [5],7.03
same,solubility (in words),[1],excellent solubility
same,physical and chemical stability (in words),"[2]; 50 °C, 50 °C/75% RH or brown light exposure",relatively high physical and chemical stability
same,Appearance,"[2]; 50 °C, 7 days",White powder
same,Purity (%),"[2]; 50 °C, 7 days",92.11%
same,Appearance,"[2]; 50 °C/75%RH, 7 days",White powder
same,Purity (%),"[2]; 50 °C/75%RH, 7 days",92.97%
same,Appearance,"[2]; 80 °C, 7 days",White powder
same,Purity (%),"[2]; 80 °C, 7 days",90.77%
same,Appearance,[2]; [7],White powder
same,Purity (%),[2]; [7],89.50%
same,Appearance,[2]; [19],White powder
same,Purity (%),[2]; [19],88.10%
same,Appearance,"[2]; Initial, 0 days",White powder
same,Purity (%),"[2]; Initial, 0 days",91.23%
same,Appearance,[2]; [8],White powder
same,Purity (%),[2]; [8],83.10%
same,XRPD,"[2]; 50 °C, 7 days",Crystalline form B of disodium salt
same,XRPD,"[2]; 50 °C/75%RH, 7 days",Crystalline form B of disodium salt
same,XRPD,"[2]; 80 °C, 7 days",Crystalline form B of disodium salt
same,XRPD,[2]; [7],Crystalline form B of disodium salt
same,XRPD,[2]; [19],Crystalline form B of disodium salt
same,XRPD,"[2]; Initial, 0 days",Crystalline form B of disodium salt
same,XRPD,[2]; [8],Crystalline form B of disodium salt
same,crystalline form transformation (in words),[2]; high temperature and light exposure,no crystalline form transformation was observed
same,sensitivity to light (in words),[2]; light exposure,sensitive to light exposure
same,physical stability (in words),"[2]; stability testing conditions, incl. high temperature and high humidity",good physical stability; also recorded: relatively high physical stability
"Cc1c(NC(=O)c2cc(C3CC3)c(CN3CCCC[C@H]3C(=O)O)cn2)cccc1-c1cccc(NC(=O)c2cc(C3CC3)c(CN3CCCC[C@H]3C(=O)O)cn2)c1C [free-form crystalline form D, (2S,2'S)-1,1'-(((((2,2'-dimethyl-[1,1'-biphenyl]-3,3'-diyl)bis(azanediyl))bis(carbonyl))bis(4-cyclopropylpyridine-6,3-diyl))bis(methylene))bis(piperidine-2-carboxylic acid)]",Equilibrium solubility,[1]; FaSSGF,87.01 µg/mL
same,Equilibrium solubility,[1]; FaSSIF,78.44 µg/mL
same,Equilibrium solubility,[1]; FeSSIF,433.75 µg/mL
same,Equilibrium solubility,"[1]; Water, room temperature",51.93 µg/mL
same,Equilibrium solubility,"[1]; pH 1.2, HCl 100 mM",281.84 µg/mL
same,Equilibrium solubility,[1]; [4],47.41 µg/mL
same,Equilibrium solubility,[1]; [5],42.11 µg/mL
same,pH24 hrs,[1]; FaSSGF,1.57
same,pH24 hrs,[1]; FaSSIF,6.43
same,pH24 hrs,[1]; FeSSIF,4.94
same,pH24 hrs,[1]; Water,5.82
same,pH24 hrs,"[1]; pH 1.2, HCl 100 mM",1.16
same,pH24 hrs,[1]; [4],4.73
same,pH24 hrs,[1]; [5],6.90
same,solubility (in words),[1],significantly improved solubility
same,physical and chemical stability (in words),[2]; [6],extremely high physical and chemical stability
same,Appearance,"[2]; 50 °C, 7 days",White powder
same,Purity (%),"[2]; 50 °C, 7 days",98.13%
same,Appearance,"[2]; 50 °C/75%RH, 7 days",White powder
same,Purity (%),"[2]; 50 °C/75%RH, 7 days",98.24%
same,Appearance,"[2]; 80 °C, 7 days",White powder
same,Purity (%),"[2]; 80 °C, 7 days",97.22%
same,Appearance,[2]; [7],White powder
same,Purity (%),[2]; [7],98.26%
same,Appearance,"[2]; Initial, 0 days",White powder
same,Purity (%),"[2]; Initial, 0 days",98.17%
same,Appearance,[2]; [8],White powder
same,Purity (%),[2]; [8],96.06%
same,XRPD,"[2]; 50 °C, 7 days",Free-form crystalline form D
same,XRPD,"[2]; 50 °C/75%RH, 7 days",Free-form crystalline form D
same,XRPD,"[2]; 80 °C, 7 days",Free-form crystalline form D
same,XRPD,[2]; [7],Free-form crystalline form D
same,XRPD,"[2]; Initial, 0 days",Free-form crystalline form D
same,XRPD,[2]; [8],Free-form crystalline form D
same,hygroscopicity (in words),[3],moderate hygroscopicity
same,hygroscopicity (in words),[3]; listed as crystalline form D,moderately hygroscopic
same,Hygroscopic weight increase (%),[3]; [9],0.00%
same,Hygroscopic weight increase (%),[3]; [10],0.40%
same,Hygroscopic weight increase (%),[3]; [11],0.85%
same,Hygroscopic weight increase (%),[3]; [12],1.34%
same,Hygroscopic weight increase (%),[3]; [13],1.85%
same,Hygroscopic weight increase (%),[3]; [14],2.30%
same,Hygroscopic weight increase (%),[3]; [15],2.76%
same,Hygroscopic weight increase (%),[3]; [16],3.25%
same,Hygroscopic weight increase (%),[3]; [17],3.79%
same,Hygroscopic weight increase (%),[3]; [18],4.58%
same,crystalline form changes after DVS testing,[3],no crystalline form changes

# Source: patent EP4806890A1, “CRYSTALLINE COMPOUND OR BASIC SALT THEREOF, PREPARATION METHOD THEREFOR, AND USE THEREOF” (Abbisko Therapeutics Co., Ltd., priority 2023, dated 2025)
